Laboratory results published in article PMC5594043, “CYP79 P450 monooxygenases in gymnosperms: CYP79A118 is associated with the formation of taxiphyllin in Taxus baccata” (Plant Molecular Biology, 2017).

Target: T1, CYP79A118 full-length (CYP79A118-M1) (Taxus baccata, UniProt A0A288W866)
T1 construct: full-length ORF; yeast WAT11 microsomes with Arabidopsis CPR1; pESC-Leu2d
Assay type: biochemical
Settings: 1 mM substrate; NADPH 1 mM; Arabidopsis CPR1 in microsomes; 75 mM sodium phosphate pH 7.0; 25 °C; product indole-3-acetaldoxime

With N[C@@H](Cc1c[nH]c2ccccc12)C(=O)O [Trp, L-tryptophan] the “LC-MS/MS of aldoxime product, yeast microsomes” value was “the full-length protein as well as the truncated version showed enzymatic activity with the aromatic”.
